PubChem BioAssay AID328 (DTP/NCI, 2004)
Several values for one entry are separate records, joined by “and”; a condition that tells them apart may be missing. Equal values may be shown once. Toxic doses and inconclusive results are not listed. How the source made its calls: active means survival T/C of 150% or more; inactive means T/C below 125% in these data.

Tested on: BDF1 mice, P388 leukemia ip, median survival T/C
Assay: NCI In Vivo Anticancer Drug Screen. Data for tumor model P388 Leukemia (intraperitoneal) in B6D2F1 (BDF1) mice
Details: endpoint: median survival time, higher = longer survival
How it was run: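 Steps: implant the tumour, treat one group with compound and another with vehicle, record survival, then divide treated by control.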

[1] = dose: 25.0 mg/kg/injection, schedule: Q01DX009 (ip), vehicle: Klucel (hydroxypropylcellulose) (HPC)
[2] = dose: 50.0 mg/kg/injection, schedule: Q01DX009 (ip), vehicle: Klucel (hydroxypropylcellulose) (HPC)
[3] = dose: 50.0 mg/kg/injection, schedule: Q04DX003 (ip), vehicle: saline
[4] = dose: 100.0 mg/kg/injection, schedule: Q01DX009 (ip), vehicle: Klucel (hydroxypropylcellulose) (HPC)
[5] = dose: 100.0 mg/kg/injection, schedule: Q04DX003 (ip), vehicle: saline
[6] = dose: 200.0 mg/kg/injection, schedule: Q01DX009 (ip), vehicle: Klucel (hydroxypropylcellulose) (HPC)
[7] = dose: 25.0 mg/kg/injection, schedule: Q04DX003 (ip), vehicle: saline with Tween-80
[8] = dose: 50.0 mg/kg/injection, schedule: Q04DX003 (ip), vehicle: saline with Tween-80
[9] = dose: 100.0 mg/kg/injection, schedule: Q04DX003 (ip), vehicle: saline with Tween-80
[10] = dose: 200.0 mg/kg/injection, schedule: Q04DX003 (ip), vehicle: saline with Tween-80
[11] = dose: 400.0 mg/kg/injection, schedule: Q04DX003 (ip), vehicle: saline with Tween-80
[12] = dose: 100.0 mg/kg/injection, schedule: Q01DX001 (ip), vehicle: saline with Tween-80
[13] = dose: 50.0 mg/kg/injection, schedule: Q01DX009 (ip), vehicle: saline with Tween-80
[14] = dose: 100.0 mg/kg/injection, schedule: Q01DX009 (ip), vehicle: saline with Tween-80
[15] = dose: 200.0 mg/kg/injection, schedule: Q01DX009 (ip), vehicle: saline with Tween-80
[16] = dose: 100.0 mg/kg/injection, schedule: Q04DX003 (ip), vehicle: Klucel (hydroxypropylcellulose) (HPC)
[17] = dose: 200.0 mg/kg/injection, schedule: Q04DX003 (ip), vehicle: Klucel (hydroxypropylcellulose) (HPC)
[18] = dose: 400.0 mg/kg/injection, schedule: Q04DX003 (ip), vehicle: Klucel (hydroxypropylcellulose) (HPC)
[19] = dose: 25.0 mg/kg/injection, schedule: Q01DX009 (ip), vehicle: saline with Tween-80
[20] = dose: 400.0 mg/kg/injection, schedule: Q01DX009 (ip), vehicle: saline with Tween-80

Measured: T/C

COc1cc(/C=C(/C)[N+](=O)[O-])ccc1O
inactive: dose: 12.5 mg/kg/injection, schedule: Q01DX009 (ip), vehicle: carboxymethylcellulose (CMC) 118 % of control | dose: 18.75 mg/kg/injection, schedule: Q01DX009 (ip), vehicle: Klucel (hydroxypropylcellulose) (HPC) 121 % of control | [1] 103 % of control and 112 % of control | [2] 116 % of control | dose: 50.0 mg/kg/injection, schedule: Q01DX009 (ip), vehicle: saline 122 % of control | [3] 109 % of control | [4] 114 % of control | dose: 100.0 mg/kg/injection, schedule: Q01DX009 (ip), vehicle: saline 92 % of control | [5] 113 % of control | [6] 114 % of control | dose: 200.0 mg/kg/injection, schedule: Q01DX009 (ip), vehicle: saline 122 % of control | dose: 200.0 mg/kg/injection, schedule: Q04DX003 (ip), vehicle: saline 118 % of control

O=C(O)CNC(=O)Nc1ccccc1
inactive: [7] 91 % of control | [8] 100 % of control | [9] 100 % of control | [10] 87 % of control | [11] 104 % of control

CCCCSc1nc(N)nc2c1ncn2CC(C)CC (centres undefined)
inactive: [9] 100 % of control | [10] 100 % of control | [11] 100 % of control

O=C(Nc1cc(Cl)c(NC(=O)c2ccccc2)c(Cl)c1)c1ccccc1
inactive: dose: 12.5 mg/kg/injection, schedule: Q01DX001 (ip), vehicle: saline with Tween-80 100 % of control | dose: 25.0 mg/kg/injection, schedule: Q01DX001 (ip), vehicle: saline with Tween-80 90 % of control and 95 % of control | dose: 50.0 mg/kg/injection, schedule: Q01DX001 (ip), vehicle: saline with Tween-80 90 % of control | [12] 95 % of control

COc1ccc(/C=C2\CCCC3=C2NC(=S)NC3c2ccc(OC)cc2)cc1 (centres undefined)
inactive: [13] 107 % of control | [14] 97 % of control | [15] 91 % of control

O=C1C=CC(=O)N1c1ccc(-c2nc3ccccc3o2)cc1
inactive: dose: 50.0 mg/kg/injection, schedule: Q01DX005 (ip), vehicle: saline with Tween-80 121 % of control | dose: 100.0 mg/kg/injection, schedule: Q01DX005 (ip), vehicle: saline with Tween-80 100 % of control

Cc1[nH]c(=O)[nH]c(=O)c1I
inactive: [13] 105 % of control | [14] 99 % of control | [15] 101 % of control

CSc1ccccc1C(=O)NNS(=O)(=O)c1ccc(C)cc1
inactive: [16] 91 % of control | [17] 104 % of control | [18] 100 % of control

O=C(NC(=O)c1c(F)cccc1F)Nc1ccc(Cl)c2ccccc12
inactive: [19] 91 % of control | [13] 100 % of control | [14] 90 % of control

CCCCCCCCSP(=S)(N1CC1)N1CC1
inactive: [14] 90 % of control | [9] 88 % of control | [15] 100 % of control | [10] 94 % of control | [20] 95 % of control | [11] 88 % of control

CC(C)(Cl)CNC(=O)c1ccc([N+](=O)[O-])cc1
inactive: [16] 91 % of control | [17] 104 % of control | [18] 100 % of control

O=[N+]([O-])c1ccc(N/N=C/c2ccccn2)cc1
inactive: [16] 104 % of control | [17] 100 % of control | [18] 109 % of control

Cc1cccc(C(=O)C=C(C(F)(F)F)C(F)(F)F)c1
active: dose: 12.5 mg/kg/injection, schedule: Q01DX009 (ip), vehicle: saline with Tween-80 155 % of control | [19] 150 % of control
inactive: dose: 6.25 mg/kg/injection, schedule: Q01DX009 (ip), vehicle: saline with Tween-80 110 % of control | dose: 12.5 mg/kg/injection, schedule: Q04DX003 (ip), vehicle: saline with Tween-80 119 % of control | dose: 12.5 mg/kg/injection, schedule: Q04DX003 (sc), vehicle: saline with Tween-80 105 % of control | [7] 104 % of control | dose: 25.0 mg/kg/injection, schedule: Q04DX003 (sc), vehicle: saline with Tween-80 115 % of control | [8] 119 % of control | dose: 50.0 mg/kg/injection, schedule: Q04DX003 (sc), vehicle: saline with Tween-80 120 % of control

C[As](C)Sc1ccnc(S[As](C)C)n1
inactive: [8] 100 % of control | [9] 100 % of control | [10] 104 % of control

O=[N+]([O-])c1ccc2c(c1)Cc1cc(Br)ccc1-2
inactive: [16] 100 % of control | [18] 100 % of control

CC1=CCCC(C)(C)C1/C=C/C(C)=C/C(=O)O (centres undefined)
inactive: dose: 3.13 mg/kg/injection, schedule: Q01DX009 (ip), vehicle: Klucel (hydroxypropylcellulose) (HPC) 111 % of control | dose: 6.25 mg/kg/injection, schedule: Q01DX009 (ip), vehicle: Klucel (hydroxypropylcellulose) (HPC) 103 % of control | dose: 12.5 mg/kg/injection, schedule: Q01DX009 (ip), vehicle: Klucel (hydroxypropylcellulose) (HPC) 99 % of control | [1] 99 % of control | [4] 104 % of control | [6] 110 % of control

O=S(=O)(c1cccc(C(F)(F)F)c1)N1c2ccccc2-n2cccc2C1c1cccnc1 (centres undefined)
inactive: [2] 94 % of control | [4] 103 % of control | [6] 96 % of control

Cc1ccc(NC(=O)c2ccc(Cl)cc2)cc1
inactive: [4] 100 % of control | [16] 108 % of control | [6] 109 % of control | [17] 104 % of control | dose: 400.0 mg/kg/injection, schedule: Q01DX009 (ip), vehicle: Klucel (hydroxypropylcellulose) (HPC) 90 % of control | [18] 104 % of control

N=C1SCc2ccc3ccccc3c21
inactive: [13] 104 % of control | [14] 106 % of control

Cc1ccc(C)c(Cc2c(C=O)[nH]c(=S)[nH]c2=O)c1
inactive: [9] 100 % of control | [10] 109 % of control | [11] 122 % of control

CSc1ccc(NC(=O)N(CCCl)N=O)cc1
inactive: dose: 6.25 mg/kg/injection, schedule: Q01DX009 (ip), vehicle: saline 100 % of control | dose: 6.25 mg/kg/injection, schedule: Q04DX003 (ip), vehicle: saline sonified 90 % of control | dose: 11.0 mg/kg/injection, schedule: Q04DX003 (ip), vehicle: saline sonified 100 % of control | dose: 12.5 mg/kg/injection, schedule: Q01DX009 (ip), vehicle: saline 100 % of control | dose: 12.5 mg/kg/injection, schedule: Q04DX003 (ip), vehicle: saline sonified 109 % of control | dose: 16.0 mg/kg/injection, schedule: Q04DX003 (ip), vehicle: saline sonified 122 % of control | dose: 25.0 mg/kg/injection, schedule: Q01DX009 (ip), vehicle: saline 116 % of control | dose: 37.5 mg/kg/injection, schedule: Q04DX003 (ip), vehicle: saline sonified 122 % of control

O=C(NC(=O)OCCCCCl)Nc1cccc(Cl)c1
inactive: [13] 100 % of control | [14] 98 % of control | [15] 88 % of control

CCCCOCN1COCC1(C)C
inactive: [3] 100 % of control | [5] 105 % of control

O=S(CC(Cl)c1ccccc1)c1ccccc1 (centres undefined)
inactive: dose: 50.0 mg/kg/injection, schedule: Q01DX009 (ip), vehicle: other 106 % of control | dose: 100.0 mg/kg/injection, schedule: Q01DX009 (ip), vehicle: other 106 % of control | dose: 200.0 mg/kg/injection, schedule: Q01DX009 (ip), vehicle: other 100 % of control

Cc1ccn(-c2ccccc2)n1
inactive: dose: 100.0 mg/kg/injection, schedule: Q04DX003 (ip), vehicle: other 104 % of control | dose: 200.0 mg/kg/injection, schedule: Q04DX003 (ip), vehicle: other 113 % of control | dose: 400.0 mg/kg/injection, schedule: Q04DX003 (ip), vehicle: other 113 % of control

Clc1cc(C(Cl)(Cl)Cl)ccc1C(Cl)(Cl)Cl
inactive: [12] 100 % of control | dose: 200.0 mg/kg/injection, schedule: Q01DX001 (ip), vehicle: saline with Tween-80 104 % of control | dose: 400.0 mg/kg/injection, schedule: Q01DX001 (ip), vehicle: saline with Tween-80 95 % of control

Oc1ccc2ccccc2c1N=Nc1ccc(Cl)cc1
inactive: [14] 104 % of control | [15] 95 % of control | [20] 95 % of control
